Data reported in patent US11596611B2, “Hepatitis B antiviral agents” (ENANTA PHARMACEUTICALS, INC., priority 2017, dated 2023).
Where two headings read alike, the source gives them in different places.

Tested on: HBV
Assay: HepAD38 antiviral assay: reduction of viral product accumulation (virion DNA by qPCR, HBsAg or HBeAg by ELISA)
Type: cell-based, hepatitis B virus
Conditions: Hepatitis B virus
Outline: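 Readouts were qPCR of lysed virion DNA plus ELISA for HBsAg or HBeAg, samples diluted into linear range. HepAD38 cells, washed free of tetracycline, received compound diluted 1:200 from DMSO for 5 days; 8-day variant refreshed media and compound on days 2 and 5.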

[1] = 120 h, HepAD38 cells, five days after compound addition, 50% reduction of viral product vs no drug controls, read-out: HepAD38 EC50

Compound	EC50 [1]	EC50 (HePAD38, 120 h, read-out: HepAD38 EC50 (μM))
CC(C)(O)CNC(=O)C[C@]1(O)CC[C@@H](CS(=O)(=O)c2cc(C(=O)Nc3ccc(F)c(F)c3)ccc2Cl)CC1 [Example 195]	> 0.2 µM	
O=C(Nc1ccc(F)c(F)c1)c1ccc(Cl)c(S(=O)(=O)[C@@H]2CC3CC[C@@H](C2)[C@@]3(O)C(O)c2cccc(C(F)F)n2)c1 (some centres unmarked) [Example 350]	< 0.104 µM	
COC(=O)[C@H]1C[C@H](S(=O)(=O)c2cc(C(=O)Nc3ccc(F)c(F)c3)ccc2Cl)C1 [Example 250a]	> 0.2 µM	
C[C@H](O)COCC1(O)CC(CS(=O)(=O)c2cc(C(=O)Nc3ccc(F)c(F)c3)ccc2Cl)C1 (some centres unmarked) [Example 208]	> 0.2 µM	
CC(C)(O)C(O)CNC(=O)C[C@]1(O)C2CCC1C[C@@H](S(=O)(=O)c1cc(C(=O)Nc3cc(F)c(F)c(F)c3)ccc1Cl)C2 (some centres unmarked) [Example 56]	0.1 to 0.2 µM	
Cc1ccnc([C@H](O)[C@@]2(O)C3CC[C@H]2C[C@H](S(=O)(=O)c2cc(C(=O)Nc4ccc(F)c(F)c4)ccc2Cl)C3)c1 [Example 296a]	< 0.104 µM	
CC(C)([C@H]1CC[C@@](C)(O)CC1)S(=O)(=O)c1cc(C(=O)Nc2ccc(F)c(F)c2)ccc1Cl [Example 237]	> 0.2 µM	
O=C(Nc1ccc(F)c(F)c1)c1ccc(Cl)c(S(=O)(=O)CC2CCC3(CC2)OCCO3)c1 [Example 216]	0.1 to 0.2 µM	
O=C(Nc1ccc(F)c(F)c1)c1ccc(Cl)c(S(=O)(=O)[C@H]2CC3CCC(C2)[C@]3(O)C(O)CN2CCOC2=O)c1 (some centres unmarked) [Example 315]	> 0.2 µM	
O=C(Nc1cc(F)c(F)c(F)c1)c1ccc(Cl)c(S(=O)(=O)[C@H]2CC3CCC(C2)[C@]3(O)CC(=O)N2CC3(COC3)C2)c1 [Example 94]	< 0.104 µM	
Nc1cc(NC(=O)c2ccc(Cl)c(S(=O)(=O)[C@H]3CC4CCC(C3)[C@]4(O)C(O)c3ncc[nH]3)c2)ccc1F (some centres unmarked) [Example 287]	> 0.2 µM	
CC(C)(C1CCC(F)(F)CC1)S(=O)(=O)c1cc(C(=O)Nc2ccc(F)c(F)c2)ccc1Cl [Example 232]	> 0.2 µM	
CC(C)(O)C[C@]1(O)CC[C@@H](CS(=O)(=O)c2cc(C(=O)Nc3ccc(F)c(F)c3)ccc2Cl)CC1 [Example 228]	> 0.2 µM	
O=C(Nc1ccc(F)c(F)c1)c1ccc(Cl)c(S(=O)(=O)[C@H]2CC3CCC(C2)[C@]3(O)[C@H](O)CO)c1 (single isomer, unassigned) [Example 174]	< 0.104 µM	
COC[C@]1(O)C2CCC1C[C@H](S(=O)(=O)c1cc(C(=O)Nc3cc(F)c(F)c(F)c3)ccc1Cl)C2 [Example 124]	< 0.104 µM	
O=C(Nc1cc(F)c(F)c(F)c1)c1ccc(Cl)c(S(=O)(=O)C2CC3CCC(C2)N3C2CCCC2)c1 (centres unmarked) [Example 146]	> 0.2 µM	
C[C@@H](O)COCC1(O)CC(S(=O)(=O)c2cc(C(=O)Nc3ccc(F)c(F)c3)ccc2Cl)C1 (some centres unmarked) [Example 234]	> 0.2 µM	
O=C(Nc1cc(F)c(F)c(F)c1)c1ccc(Cl)c(S(=O)(=O)[C@@H]2CC3CC[C@@H](C2)N3C[C@H](O)CO)c1 [Example 153]		0.1 to 0.2 µM
C[C@H](O)[C@H](O)[C@]1(O)C2CCC1C[C@@H](S(=O)(=O)c1cc(C(=O)Nc3cc(F)c(F)c(F)c3)ccc1Cl)C2 (single isomer, unassigned) [Example 108]	< 0.104 µM	
COCCNC(=O)C[C@]1(O)C2CCC1C[C@@H](S(=O)(=O)c1cc(C(=O)Nc3ccc(F)c(F)c3)ccc1Cl)C2 [Example 190]	< 0.104 µM	

Compound	EC50 [1]	EC50 (HePAD38, 120 h, read-out: HepAD38 EC50 (μM))
O=C(Nc1cc(F)c(F)c(F)c1)c1ccc(Cl)c(S(=O)(=O)[C@H]2CC3CCC(C2)[C@]3(O)CNC(=O)C2CCC(O)C(O)C2)c1 (single isomer, unassigned) [Example 19]	> 0.2 µM	
C[C@@H](O)[C@H](O)[C@]1(O)C2CCC1C[C@@H](S(=O)(=O)c1cc(C(=O)Nc3cc(F)c(F)c(F)c3)ccc1Cl)C2 (single isomer, unassigned) [Example 109]	< 0.104 µM	
O=C1CC[C@@H](C(=O)NC[C@]2(O)C3CCC2C[C@@H](S(=O)(=O)c2cc(C(=O)Nc4cc(F)c(F)c(F)c4)ccc2Cl)C3)N1 [Example 127]	> 0.2 µM	
COCCOCCOC[C@]1(O)C2CCC1C[C@@H](S(=O)(=O)c1cc(C(=O)Nc3cc(F)c(F)c(F)c3)ccc1Cl)C2 [Example 99]	< 0.104 µM	
COC(=O)C1([C@]2(O)C3CCC2C[C@@H](S(=O)(=O)c2cc(C(=O)Nc4cc(F)c(F)c(F)c4)ccc2Cl)C3)COC(C)(C)O1 (some centres unmarked) [Example 202]	< 0.104 µM	
C[C@]1(O)C2CCC1C[C@@H](S(=O)(=O)c1cc(C(=O)Nc3ncccn3)ccc1Cl)C2 [Example 217]	> 0.2 µM	
CC(C)N(C[C@]1(O)C2CCC1C[C@@H](S(=O)(=O)c1cc(C(=O)Nc3ccc(F)c(F)c3)ccc1Cl)C2)C(C)C [Example 342]	< 0.104 µM	
O=C(Nc1ccc(F)c(F)c1)c1ccc(Cl)c(S(=O)(=O)CC2CCC(F)CC2)c1 (centres unmarked) [Example 226]	> 0.2 µM	
O=C(Nc1ccc(F)c(F)c1)c1ccc(Cl)c(S(=O)(=O)[C@H]2CC3CCC(C2)[C@@]3(O)C(O)CN2CCCS2(=O)=O)c1 (some centres unmarked) [Example 309]	0.1 to 0.2 µM	
COC(=O)NCCC(=O)NC[C@@]1(O)C2CC[C@H]1C[C@H](S(=O)(=O)c1cc(C(=O)Nc3cc(F)c(F)c(F)c3)ccc1Cl)C2 [Example 80]	< 0.104 µM	
O=C(Nc1ccc(F)c(F)c1)c1ccc(Cl)c(S(=O)(=O)C2CC(O)(CO)C2)c1 (centres unmarked) [Example 220]	> 0.2 µM	
O=C(Nc1ccc(F)c(F)c1)c1ccc(Cl)c(S(=O)(=O)CC2CCC(O)(C(O)CO)CC2)c1 (centres unmarked) [Example 199]	> 0.2 µM	
CC(C)(O)CNC(=O)C[C@]1(O)CC[C@H](CS(=O)(=O)c2cc(C(=O)Nc3ccc(F)c(F)c3)ccc2Cl)CC1 [Example 196]	> 0.2 µM	
O=C(Nc1ccc(F)c(F)c1)c1ccc(Cl)c(S(=O)(=O)[C@H]2CC3CCC(C2)[C@]3(O)[C@@H](O)c2ccccn2)c1 (single isomer, unassigned) [Example 284a]	< 0.104 µM	
O=C(Nc1cc(F)c(F)c(F)c1)c1ccc(Cl)c(S(=O)(=O)[C@H]2CC3CCC(C2)[C@]3(O)COCC(O)CO)c1 (some centres unmarked) [Example 63]	< 0.104 µM	
CC(O)C[C@]1(O)CC[C@H](CS(=O)(=O)c2cc(C(=O)Nc3ccc(F)c(F)c3)ccc2Cl)CC1 (some centres unmarked) [Example 225]	0.1 to 0.2 µM	
O=C(CC1(O)CC(S(=O)(=O)c2cc(C(=O)Nc3ccc(F)c(F)c3)ccc2Cl)C1)NCCCO (centres unmarked) [Example 249]	> 0.2 µM	
O=C(Nc1cc(F)c(F)c(F)c1)c1ccc(Cl)c(S(=O)(=O)[C@@H]2CC3CC[C@@H](C2)[C@@]3(O)CNC(=O)[C@]2(O)CCC[C@H]2O)c1 (relative stereo) [Example 59]	0.1 to 0.2 µM	
O=C(Nc1ccc(F)c(F)c1)c1ccc(Cl)c(S(=O)(=O)[C@H]2C[C@@H](CO)C2)c1 [Example 252b]	> 0.2 µM	
O=C(O)CCNC(=O)C[C@]1(O)C2CCC1C[C@@H](S(=O)(=O)c1cc(C(=O)Nc3cc(F)c(F)c(F)c3)ccc1Cl)C2 [Example 140]	> 0.2 µM	

Compound	EC50 [1]	EC50 (HePAD38, 120 h, read-out: HepAD38 EC50 (μM))
CC(C)(O)C(O)CNC(=O)[C@@]1(O)C2CC[C@H]1C[C@H](S(=O)(=O)c1cc(C(=O)Nc3cc(F)c(F)c(F)c3)ccc1Cl)C2 (some centres unmarked) [Example 148]	0.1 to 0.2 µM	
O=C(Nc1ccc(F)c(F)c1)c1ccc(Cl)c(S(=O)(=O)C2CC(C(=O)NCCCO)C2)c1 (centres unmarked) [Example 258]	> 0.2 µM	
C[C@H](O)[C@@H](O)[C@]1(O)C2CCC1C[C@@H](S(=O)(=O)c1cc(C(=O)Nc3ccc(F)c(F)c3)n(C)c1)C2 [Example 341]	> 0.2 µM	
O=C(Nc1ccc(F)c(F)c1)c1ccc(Cl)c(S(=O)(=O)[C@H]2CC3CCC(C2)[C@]3(O)C(O)c2cccnc2)c1 (some centres unmarked) [Example 285]	< 0.104 µM	
C[C@H](O)COCC1(O)CCC(CS(=O)(=O)c2cc(C(=O)Nc3ccc(F)c(F)c3)ccc2Cl)CC1 (some centres unmarked) [Example 198]	0.1 to 0.2 µM	
COC(=O)N[C@@H](Cc1ccccc1)C(=O)N1C2CCC1CC(S(=O)(=O)c1cc(C(=O)Nc3cc(F)c(F)c(F)c3)ccc1Cl)C2 (some centres unmarked) [Example 154]	> 0.2 µM	
C[C@]1(O)C2CCC1C[C@@H](S(=O)(=O)c1cc(C(=O)Nc3ccc(F)c(Br)c3)ccc1Cl)C2 [Example 30]	< 0.104 µM	
COC(=O)N[C@H](C(=O)NC[C@]1(O)C2CCC1C[C@@H](S(=O)(=O)c1cc(C(=O)Nc3cc(F)c(F)c(F)c3)ccc1Cl)C2)C(C)C [Example 50]	< 0.104 µM	
O=C(Nc1ccc(F)c(F)c1)c1ccc(Cl)c(S(=O)(=O)[C@H]2CC3CCC(C2)[C@]3(O)C(O)C(O)c2cccnc2)c1 (some centres unmarked) [Example 321]	< 0.104 µM	
COC(=O)CCNC(=O)[C@H]1C[C@H](S(=O)(=O)c2cc(C(=O)Nc3ccc(F)c(F)c3)ccc2Cl)C1 [Example 257a]	> 0.2 µM	
O=C(Nc1ccc(F)c(F)c1)c1ccc(Cl)c(S(=O)(=O)[C@H]2CC3CCC(C2)[C@]3(O)C(O)C(O)CN2CCOC2=O)c1 (some centres unmarked) [Example 313]	< 0.104 µM	
Cc1cccnc1C(O)[C@@]1(O)C2CC[C@H]1C[C@H](S(=O)(=O)c1cc(C(=O)Nc3ccc(F)c(F)c3)ccc1Cl)C2 (some centres unmarked) [Example 295]	< 0.104 µM	
COC(=O)N[C@@H](C)C(=O)NC[C@]1(O)C2CCC1C[C@@H](S(=O)(=O)c1cc(C(=O)Nc3cc(F)c(F)c(F)c3)ccc1Cl)C2 [Example 48]	< 0.104 µM	
O=C(Nc1ccc(F)c(F)c1)c1ccc(Cl)c(S(=O)(=O)[C@H]2CC3CCC(C2)[C@]3(O)C(O)CO)c1 (mixture of isomers) [Example 82]	< 0.104 µM	
CC(O)[C@]1(O)CC2CC[C@@H](C1)[C@H]2S(=O)(=O)c1cc(C(=O)Nc2ccc(F)c(F)c2)ccc1Cl (mixture of isomers) [Example 7]	< 0.104 µM	
Cc1cccc([C@@H](O)[C@@]2(O)C3CC[C@H]2C[C@H](S(=O)(=O)c2cc(C(=O)Nc4ccc(F)c(F)c4)ccc2Cl)C3)n1 [Example 294b]	< 0.104 µM	
O=C(Nc1cc(F)c(F)c(F)c1)c1ccc(Cl)c(S(=O)(=O)[C@@H]2CC3CC[C@@H](C2)[C@@]3(O)CNC(=O)[C@H]2OCC(O)[C@@H]2O)c1 (some centres unmarked) [Example 29]	> 0.2 µM	
O=C(Nc1ccc(F)c(F)c1)c1ccc(Cl)c(S(=O)(=O)[C@H]2CC3CCC(C2)[C@]3(O)CNC(=O)C2CC2)c1 [Example 158]	< 0.104 µM	
CC(C)([C@H]1CC[C@@H](O)CC1)S(=O)(=O)c1cc(C(=O)Nc2ccc(F)c(F)c2)ccc1Cl [Example 235]	> 0.2 µM	
